Assay results as given in publication PMC10343472, “Cyclopentenylcytosine (CPE-C): In Vitro and In Vivo Evaluation as an Antiviral against Adenoviral Ocular Infections” (Molecules, 2023).

Key:
NZW rabbit eyes = experiment: ocular toxicity in Draize rabbit model; assay type: in vivo, New Zealand white (NZW) rabbits; set-up: key to Maximum Mean Total Score: Draize/MMTS ocular toxicity score; for Draize irritation class: key: N = Non-Irritating; PN = Practically Non-Irritating
Experimental: CPE-C was evaluated for ocular toxicity using the standard Draize ocular scoring method which has been in use to determine the toxicity of cosmetics and chemicals since 1944 [39]. CPE-C ointments (3%, 2%, 1%, 0.5%) were administered topically 4 times daily for 4 days in uninfected, non-scarified NZW rabbit eyes (n = 2). Additionally, the 3% CPE-C concentration was also evaluated in rabbit eyes after corneal scarification. Overall, CPE-C, in concentrations up to 3% in an Aquaphor vehicle, appeared to be non-toxic to NZW rabbit eyes. […] There appeared to be no inhibition of corneal epithelial wound healing by the CPE-C in eyes that had undergone corneal epithelial scarification. Since the 3% CPE-C was the highest non-toxic concentration tested, this concentration was chosen for the in vivo antiviral efficacy testing in the Ad5/NZW rabbit ocular replication model.
CPE-C ointment (3%, 2%, 1%, 0.5%) was administered topically 4 times daily for 4 days in uninfected, non-scarified NZW rabbit eyes (n = 2). The CPE-C ointments were administered in approximately ½ inch strips per dose via a syringe with a 19-gauge cannula attached. The eyes were closed and gently rubbed to produce even distribution of antiviral over the entire ocular surface. The 3% CPE-C concentration was also evaluated in rabbit eyes after corneal scarification (general anesthesia with 40 mg/kg of ketamine and 4 mg/kg of xylazine administered intramuscularly and topical ocular anesthesia with proparacaine followed by 12 cross-hatched strokes with a #25 needle). All eyes were evaluated in a masked fashion for ocular toxicity using the Draize and MMTS scoring system on days 2, 3, and 4.

[1] = signs of systemic toxicity in the rabbit studies after topical ocular administration; assay type: in vivo; details: topical ocular administration in the doses given
Text: Like 2′,3′-dideoxycytidine (ddC; zalcitabine), the most important unresolved issue affecting the future commercial development of CPE-C is systemic safety. The untimely deaths reported in 1995 of two cancer patients treated with intravenous CPE-C [35] raises serious concerns for the treatment of a self-limited non-blinding ocular infection. […] Therefore, the challenge for a pharmaceutical company will be to generate convincing and reassuring systemic safety data following topical administration. Given the negative clinical history associated with this compound, a persuasive package of unambiguous data will be required to convince appropriate governmental regulatory agencies to grant approval for the proposed ocular indication for CPE-C as the first topical anti-adenoviral drug.

[2] = set-up: method as in PMID 11431446; details: topical ocular; cited from earlier work
[3] = 1% ointment 4 times daily, non-scarified eyes, Day 2
[4] = 1% ointment 4 times daily, non-scarified eyes, Day 3
[5] = 1% ointment 4 times daily, non-scarified eyes, Day 4
[6] = 2% ointment 4 times daily, non-scarified eyes, Day 2
[7] = 2% ointment 4 times daily, non-scarified eyes, Day 3
[8] = 2% ointment 4 times daily, non-scarified eyes, Day 4
[9] = 3% ointment 4 times daily, non-scarified eyes, Day 2

Nc1ccn([C@@H]2C=C(CO)[C@@H](O)[C@H]2O)c(=O)n1 [CPE-C, Cyclopentenylcytosine]
Maximum Mean Total Score (NZW rabbit eyes; 0.5% ointment 4 times daily, non-scarified eyes, Day 2): 1.0 | Maximum Mean Total Score (NZW rabbit eyes; 0.5% ointment 4 times daily, non-scarified eyes, Day 3): 1.0 | Maximum Mean Total Score (NZW rabbit eyes; 0.5% ointment 4 times daily, non-scarified eyes, Day 4): 1.0 | Draize irritation class (NZW rabbit eyes; [3]): N | Maximum Mean Total Score (NZW rabbit eyes; [3]): 0.0 | Draize irritation class (NZW rabbit eyes; [4]): N | Maximum Mean Total Score (NZW rabbit eyes; [4]): 0.0 | Draize irritation class (NZW rabbit eyes; [5]): N | Maximum Mean Total Score (NZW rabbit eyes; [5]): 0.0 | Draize irritation class (NZW rabbit eyes; [6]): N | Maximum Mean Total Score (NZW rabbit eyes; [6]): 0.0 | Draize irritation class (NZW rabbit eyes; [7]): N | Maximum Mean Total Score (NZW rabbit eyes; [7]): 0.0 | Draize irritation class (NZW rabbit eyes; [8]): N | Maximum Mean Total Score (NZW rabbit eyes; [8]): 0.0 | Maximum Mean Total Score (NZW rabbit eyes; 3% ointment 4 times daily, eyes with scarification, Day 2): 1.0 | Maximum Mean Total Score (NZW rabbit eyes; 3% ointment 4 times daily, eyes with scarification, Day 3): 1.0 | Maximum Mean Total Score (NZW rabbit eyes; 3% ointment 4 times daily, eyes with scarification, Day 4): 1.0 | Draize irritation class (NZW rabbit eyes; [9]): N | Maximum Mean Total Score (NZW rabbit eyes; [9]): 0.0 | Maximum Mean Total Score (NZW rabbit eyes; 3% ointment 4 times daily, non-scarified eyes, Day 3): 2.0 | Maximum Mean Total Score (NZW rabbit eyes; 3% ointment 4 times daily, non-scarified eyes, Day 4): 2.0 | ocular irritation by Draize scoring (NZW rabbit eyes; 3% ointment, scarified eyes, 4 times daily for 4 days): practically non-irritating | inhibition of corneal epithelial wound healing (NZW rabbit eyes; eyes that had undergone corneal epithelial scarification): no inhibition | ocular irritation by Draize scoring (NZW rabbit eyes; rabbit, in vivo): non-irritating or practically non-irritating | signs of systemic toxicity (decreased appetite, weight loss, wasting, death) [1]: no obvious signs of systemic toxicity

Nc1ccn(C[C@@H](CO)OCP(=O)(O)O)c(=O)n1 [Cidofovir, cidofovir, reference compound]
toxicity leading to discontinuation of development of topical cidofovir in the USA [2]: epiphora due to secondary lacrimal canalicular blockade
